Source: patent US20230286973A1, “PROTEIN SECRETION INHIBITORS” (KEZAR LIFE SCIENCES, priority 2020, published 2023)

Experiments:
[1] = test system: TNFα-FL/Gaussia Luciferase; assay: Dox Induced TNFα-FL-Gluc Assay; type: cell-based; details: for IC50: 24 hr Dox induction, 293FRT/TO cells, read-out: 24 hr Dox Inducible TNFaFLGluc 293FRT/TO: Mean IC50; for 24 hr Dox Inducible TNFaFLGluc 293FRT/TO: TNF/PD1: ratio of TNFaFLGluc IC50 to PD1ssGluc IC50
Outline: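 Cell line: stable Flp-In 293 T-REx, TNFα-FL(1-233)-Gaussia luciferase fusion, T-REx-inducible. Plated day -1; compounds in DMSO/media + doxycycline, 37 °C, 5% CO2. Undefined stereocentres = mixture tested.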

[2] = test system: multiple myeloma cell line NCI-H929; assay: H929 Cell Viability Assay; type: cell-based, human; details: Homo sapiens, NCI-H929, 48 h, NCI-H929 cells, Celltiter-Glo
Outline: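 Cells in RPMI 1640/10% FBS; compound dilutions in DMSO/media; 48 h, 37° C, 5% CO2; CellTiter-Glo luciferase readout for viability.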

[3] = Liver Microsome Stability Assay (rat); details: rat liver microsomes, with NADPH, 1.0 uM compound
Procedure: (§1) Stability of a compound was assessed in the presence of liver microsomes from various sources—mouse, rat, monkey and human liver microsomes. 1.0 uM compound, 0.4% DMSO in 0.1 M Potassium Phosphate with 1.0 mg/mL liver microsomes, were incubated at 37° C. with or without 1 mM NADPH. The samples were quenched at 0, and 30 minutes.

[4] = Liver Microsome Stability Assay (mouse); details: mouse liver microsomes, with NADPH, 1.0 uM compound
Procedure: as §1

[5] = test system: HER3-ss+4aa/Gaussia Luciferase; assay: Dox-Induced Her3-ss-Gluc Assay; type: cell-based; details: 24 hr Dox induction; 293FRT/TO cells; read-out: 24 hr Dox Inducible Her3(ss + 4)Gluc 293FRT/TO: Mean IC50
Outline: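 Flp-In 293 T-REx cells, stable HER3-ss+4aa/Gaussia luciferase insert, hygromycin/blasticidin selected; plated day before; compound in DMSO/media + doxycycline; 37° C., 5% CO2.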

[6] = test system: IL-2-FL/Gaussia Luciferase; assay: Dox Induced IL2-FL-Gluc Assay; type: cell-based; details: for IC50: 24 hr Dox induction, 293FRT/TO cells, read-out: 24 hr Dox Inducible IL2FLGluc 293FRT/TO: Mean IC50; for 24 hr Dox Inducible IL2FLGluc 293FRT/TO: IL2/PD1: ratio of IL2FLGluc IC50 to PD1ssGluc IC50
Outline: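 Stable Flp-In 293 T-REx line, Tet-regulated IL-2 (aa 1-153)–Gaussia luciferase fusion; hygromycin/blasticidin selected. Plated day -1; compound + doxycycline added next day; 37° C, 5% CO2.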

[7] = Liver Microsome Stability Assay (human); details: human liver microsomes, with NADPH, 1.0 uM compound
Procedure: as §1

[8] = test system: multiple myeloma cell line U266B1; assay: U266 Cell Viability Assay; type: cell-based, human; details: Homo sapiens, U-266, 48 h, U266B1 cells, Celltiter-Glo
Outline: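 Luminescent ATP read-out (CellTiter-Glo) after 48 h compound exposure at 37° C., 5% CO2; cells maintained in RPMI 1640/10% FBS/2 mM glutamine/pen-strep, compounds diluted in DMSO/media.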

[9] = test system: PD1-ss+10aa/Gaussia Luciferase; assay: Dox-Induced PD1-ss-Gluc Assay; type: cell-based; details: 24 hr Dox induction; 293FRT/TO cells; read-out: 24 hr Dox Inducible PD1ssGluc 293FRT/TO: Mean IC50
Outline: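 Flp-In 293 T-REx, stable line; Tet-regulated PD1-ss+10aa fused to Gaussia luciferase; plated day prior; cpd + doxycycline in DMSO/media; 37 °C, 5% CO2.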

[10] = Liver Microsome Stability Assay (monkey); details: monkey liver microsomes, with NADPH, 1.0 uM compound
Procedure: as §1

Row | SMILES | IC50 [1] | 24 hr Dox Inducible TNFaFLGluc 293FRT/TO: TNF/PD1 [1] | EC50 [2] | Liver Microsome Stability (Multiple Species): Rat - % Remaining after 30 min w/NADPH [3] | Liver Microsome Stability (Multiple Species): Mouse - % Remaining after 30 min w/NADPH [4] | IC50 [5] | IC50 [6] | 24 hr Dox Inducible IL2FLGluc 293FRT/TO: IL2/PD1 [6] | Liver Microsome Stability (Multiple Species): Human - % Remaining after 30 min w/NADPH [7] | EC50 [8] | IC50 [9] | Liver Microsome Stability (Multiple Species): Monkey - % Remaining after 30 min w/NADPH [10]
1 | CC(C)n1cncc1/C=C/c1csc(NC(=O)c2cccn2Cc2ccncc2)n1 [Compound B57, (E)-N-(4-(2-(1-isopropyl-1H-imidazol-5-yl)vinyl)thiazol-2-yl)-1-(pyridin-4-ylmethyl)-1H-pyrrole-2-carboxamide] | 16.7 µM | 5.83 | 16.3 µM | 34.4% | 17.3% | > 25 µM | > 25 µM | >8.7 | 17.5% | > 24.2 µM | 2.86 µM | 2.84%
2 | Cc1c(/C=C/c2csc(NC(=O)c3cccn3Cc3ccncc3)n2)ncn1C(C)C [Compound B58, (E)-N-(4-(2-(1-isopropyl-5-methyl-1H-imidazol-4-yl)vinyl)thiazol-2-yl)-1-(pyridin-4-ylmethyl)-1H-pyrrole-2-carboxamide] | 2.31 µM | 952 | 15.4 µM | 1.67% | 2.14% | 12.4 µM | > 19.7 µM | >810 | 0.28% | 18.4 µM | 0.0244 µM | 5.89%
3 | Cc1cccc(/C=C/c2csc(NC(=O)c3cccn3Cc3ccnc(F)c3)n2)n1 [Compound B59, (E)-1-((2-fluoropyridin-4-yl)methyl)-N-(4-(2-(6-methylpyridin-2-yl)vinyl)thiazol-2-yl)-1H-pyrrole-2-carboxamide] | 13.9 µM | 29.7 | 7.91 µM | 0.55% | 0.64% | 2.1 µM | 6.09 µM | 13 | 0.32% | 11.9 µM | 0.467 µM | 0.17%
4 | O=C(Nc1nc(/C=C/c2ccc3c(n2)CCCC3)cs1)c1cccn1Cc1ccnc(F)c1 [Compound B60, (E)-1-((2-fluoropyridin-4-yl)methyl)-N-(4-(2-(5,6,7,8-tetrahydroquinolin-2-yl)vinyl)thiazol-2-yl)-1H-pyrrole-2-carboxamide] | > 25 µM | >179 | 12.8 µM | 1.16% | 0.45% | 0.725 µM | 1.75 µM | 13 | 0.33% | 15.8 µM | 0.14 µM | 2.65%
5 | O=C(Nc1nc(/C=C/c2cccc(=O)[nH]2)cs1)c1cccn1Cc1ccnc(F)c1 [Compound B61] | > 25 µM | <=>1.00 | > 25 µM | 12.3% | 9.41% | > 25 µM | > 25 µM | <=>1.0 | 0.96% | > 25 µM | > 25 µM | 0.5%
6 | O=C(Nc1nc(/C=C/c2cn3c(n2)CCC3)cs1)c1cccn1Cc1ccnc(F)c1 [Compound B62, (E)-N-(4-(2-(6,7-dihydro-5H-pyrrolo[1,2-a]imidazol-2-yl)vinyl)thiazol-2-yl)-1-((2-fluoropyridin-4-yl)methyl)-1H-pyrrole-2-carboxamide] | > 25 µM | >77.9 | > 24.3 µM | 2.51% | 11.5% | > 25 µM | > 25 µM | >78 | 0.2% | > 25 µM | 0.321 µM | 2.64%
7 | CC(C)n1cnc(/C=C/c2csc(NC(=O)c3cccn3Cc3cccnc3)n2)c1 [Compound B63, (E)-N-(4-(2-(1-isopropyl-1H-imidazol-4-yl)vinyl)thiazol-2-yl)-1-(pyridin-3-ylmethyl)-1H-pyrrole-2-carboxamide] | > 25 µM | <=>1.20 | > 25 µM | 1.14% | 0.49% | > 25 µM | > 25 µM | <=>1.2 | 6.56% | > 25 µM | > 20.9 µM | 0.09%
8 | CC(C)c1ccc(/C=C/c2csc(NC(=O)c3cccn3Cc3ccnc(F)c3)n2)nc1 [Compound B64, (E)-1-((2-fluoropyridin-4-yl)methyl)-N-(4-(2-(5-isopropylpyridin-2-yl)vinyl)thiazol-2-yl)-1H-pyrrole-2-carboxamide] | 18.4 µM | 894 | 15.7 µM | 0.46% | 0.29% | 0.784 µM | 1.72 µM | 84 | 0.37% | > 22.2 µM | 0.0206 µM | 0.12%
9 | CCn1cnc(/C=C/c2csc(NC(=O)c3cccn3Cc3ccnc(F)c3)n2)c1 [Compound B65, (E)-N-(4-(2-(1-ethyl-1H-imidazol-4-yl)vinyl)thiazol-2-yl)-1-((2-fluoropyridin-4-yl)methyl)-1H-pyrrole-2-carboxamide] | > 25 µM | >208 | 24.5 µM | 4.75% | 7.82% | > 25 µM | > 25 µM | >210 | 0.18% | > 25 µM | 0.12 µM | 0.08%
10 | CC(C)c1ccc(/C=C/c2csc(NC(=O)c3cccn3Cc3cccnc3)n2)nc1 [Compound B66, (E)-N-(4-(2-(5-isopropylpyridin-2-yl)vinyl)thiazol-2-yl)-1-(pyridin-3-ylmethyl)-1H-pyrrole-2-carboxamide] | > 25 µM | >1.61 | 13.4 µM | 0.18% | 0.11% | > 25 µM | > 25 µM | >1.6 | 0.09% | > 25 µM | 15.5 µM | 0.35%
